US10519177B2, “Heterocyclic compounds and uses thereof” (Plexxikon Inc., priority 2013, dated 2019)

Test system: bromodomain
Assay: at least one of the bromodomain cell assays of Example 57
Type: cell-based
Settings: at least one of the bromodomain cell assays described in Example 57; read-out: IC50 in at least one of the bromodomain cell assays

| Compound | IC50 |
| --- | --- |
| Cc1nnn(C)c1-c1cnc2c(-c3ccc(C(C)(C)C)cc3)cn(CC3(F)CCC(F)(F)CC3)c2c1 [P-0809, 3-(4-tert-butylphenyl)-6-(3,5-dimethyltriazol-4-yl)-1-[(1,4,4-trifluorocyclohexyl)methyl]pyrrolo[3,2-b]pyridine] | < 10 µM |
| Cc1noc(C)c1-c1cnc2c(-c3ccc(C(C)(C)C)cc3)cn([C@H](c3ccccc3)c3ccccn3)c2c1 [P-0814, 4-[3-(4-tert-butylphenyl)-1-[(R)-phenyl(2-pyridyl)methyl]pyrrolo[3,2-b]pyridin-6-yl]-3,5-dimethyl-isoxazole] | < 10 µM |
| Cc1noc(C)c1-c1cnc2c(-c3ccc(C(=O)O)cc3)cn([C@@H](c3ccccn3)C3CCCCC3)c2c1 [P-0816, 4-[1-[(R)-cyclohexyl(2-pyridyl)methyl]-6-(3,5-dimethy7lisoxazol-4-yl)pyrrolo[3,2-b]pyridin-3-yl]benzoic acid] | < 10 µM |
| COC(=O)c1ccc(-c2cn([C@H](c3ccccc3)c3ccccn3)c3cc(-c4c(C)noc4C)cnc23)cc1 [P-0726, methyl 4-[6-(3,5-dimethylisoxazol-4-yl)-1-[(R)-phenyl(2-pyridyl)methyl]pyrrolo[3,2-b]pyridin-3-yl]benzoate] | < 10 µM |
| Cc1noc(C)c1-c1cnc2c(-c3ccc(C(=O)O)cc3)cn(CC3CCCCO3)c2c1 (stereo not drawn) [P-0768, 4-[6-(3,5-dimethylisoxazol-4-yl)-1-(tetrahydrpyran-2-ylmethyl)pyrrolo[3,2-b]pyridin-3-yl]benzoic acid] | < 10 µM |
| Cc1noc(C)c1-c1cnc2c(-c3ncc(C(=O)O)cn3)cn(CC3CCC(F)(F)CC3)c2c1 [P-0614, 2-[1-[(4,4-difluorocyclohexyl)methyl]-6-(3,5-dimethylisoxazol-4-yl)pyrrolo[3,2-b]pyridin-3-yl]pyrimidine-5-carboxylic acid] | < 10 µM |
| [2H]C([2H])([2H])c1ccc(-c2cn(CC3CCCCC3)c3cc(-c4c(C)noc4C)cnc23)cc1 [P-0785, 4-[1-(cyclohexylmethyl)-3-[4-(trideuteriomethyl)phenyl]pyrrolo[3,2-b]pyridin-6-yl]-3,5-dimethyl-isoxazole] | < 10 µM |
| Cc1noc(C)c1-c1cnc2c(-c3ccc(C(C)(C)C(=O)O)cc3)cn(CC3CCCCC3)c2c1 [P-0703, 2-[4-[1-(cyclohexylmethyl)-6-(3,5-dimethylisoxazol-4-yl)pyrrolo[3,2-b]pyridin-3-yl]phenyl]-2-methyl-propanoic acid] | < 10 µM |
| Cc1noc(C)c1-c1cnc2c(-c3ccc(C(=O)O)cc3)cn(CC3CC4CC4C3)c2c1 (stereo not drawn) [P-0621, 4-[1-(3-bicyclo[3.1.0]hexanylmethyl)-6-(3,5-dimethylisoxazol-4-yl)pyrrolo[3,2-b]pyridin-3-yl]benzoic acid] | < 10 µM |
| Cc1noc(C)c1-c1cnc2c(-c3ccc(C(=O)OC(C)C)cc3)cn(CC3CCC(F)(F)CC3)c2c1 [P-0618, isopropyl 4-[1-[(4,4-difluorocyclohexyl)methyl]-6-(3,5-dimethylisoxazol-4-yl)pyrrolo[3,2-b]pyridin-3-yl]benzoate] | < 10 µM |
| Cc1noc(C)c1-c1cnc2c(-c3ccc4c(c3)OC(=O)C4)cn(CC3CCCCC3)c2c1 [P-0801, 6-[1-(cyclohexylmethyl)-6-(3,5-dimethylisoxazol-4-yl)pyrrolo[3,2-b]pyridin-3-yl]-3H-benzofuran-2-one] | < 10 µM |
| Cc1ccc(-c2cn([C@H](c3ccccc3)c3ccccn3)c3cc(-c4c(C)noc4C)ccc23)cc1 [P-0790, 3,5-dimethyl-4-[1-[(R)-phenyl(2-pyridyl)methyl]-3-(p-tolyl)indol-6-yl]isoxazole] | < 10 µM |
| Cc1noc(C)c1-c1ccc2c(-c3ccc(CO)cc3)cn([C@H](c3ccccc3)c3ccccn3)c2c1 [P-0757, [4-[6-(3,5-dimethylisoxazol-4-yl)-1-[(R)-phenyl(2-pyridyl)methyl]indol-3-yl]phenyl]methanol] | < 10 µM |
| Cc1noc(C)c1-c1ccc2c(-c3ccc(C4(C(=O)O)CC4)cc3)cn(CC3CCC(F)(F)CC3)c2c1 [P-0748, 1-[4-[1-[(4,4-difluorocyclohexyl)methyl]-6-(3,5-dimethylisoxazol-4-yl)indol-3-yl]phenyl]cyclopropanecarboxylic acid] | < 10 µM |
| Cc1noc(C)c1-c1cnc2c(c1)c(C(c1ccccc1)c1ccccc1)cn2-c1ccc(CO)cc1 [P-0741, [4-[3-benzhydryl-5-(3,5-dimethylisoxazol-4-yl)pyrrolo[2,3-b]pyridin-1-yl]phenyl]methanol] | < 10 µM |
| Cc1ccc(-c2cn(CC3(F)CCC(F)(F)CC3)c3cc(-c4c(C)nnn4C)cnc23)cc1 [P-0808, 6-(3,5-dimethyltriazol-4-yl)-3-(p-tolyl)-1-[(1,4,4-trifluorocyclohexyl)methyl]pyrrolo[3,2-b]pyridine] | < 10 µM |
| Cc1noc(C)c1-c1cnc2c(c1)c(C(c1ccccc1)c1ccccc1)cn2-c1ccc(C(=O)O)cc1 [P-0740, 4-[3-benzhydryl-5-(3,5-dimethylisoxazol-4-yl)pyrrolo[2,3-b]pyridin-1-yl]benzoic acid] | < 10 µM |
| Cc1noc(C)c1-c1cnc2c(-c3ccc4c(c3)COC4=O)cn(CC3CCCCC3)c2c1 [P-0797, 5-[1-(cyclohexylmethyl)-6-(3,5-dimethylisoxazol-4-yl)pyrrolo[3,2-b]pyridin-3-yl]-3H-isobenzofuran-1-one] | < 10 µM |

| Compound | IC50 |
| --- | --- |
| Cc1ccc(-c2cn([C@@H](c3ccccc3)c3ccccn3)c3cc(-c4c(C)noc4C)ccc23)cc1 [P-0789, 3,5-dimethyl-4-[1-[(S)-phenyl(2-pyridyl)methyl]-3-(p-tolyl)indol-6-yl]isoxazole] | < 10 µM |
| Cc1cc(-c2ccc3c(-c4ccc(C(=O)O)cc4)cn(CC4CCCCC4)c3c2)cn(C)c1=O [P-0760, 4-[1-(cyclohexylmethyl)-6-(1,5-dimethyl-6-oxo-3-pyridyl)indol-3-yl]benzoic acid] | < 10 µM |
| Cc1ccc(-c2cn([C@@H](c3ccccn3)C3CCCCC3)c3cc(-c4c(C)noc4C)cnc23)cc1 [P-0817, 4-[1-[(R)-cyclohexyl(2-pyridyl)methyl]-3-(p-tolyl)pyrrolo[3,2-b]pyridin-6-yl]-3,5-dimethyl-isoxazole] | < 10 µM |
| Cc1noc(C)c1-c1cnc2c(-c3ccc([N+](=O)[O-])nc3)cn([C@@H](c3ccccc3)c3ccccn3)c2c1 [P-0719, 3,5-dimethyl-4-[3-(6-nitro-3-pyridyl)-1-[(S)-phenyl(2-pyridyl)methyl]pyrrolo[3,2-b]pyridin-6-yl]isoxazole] | < 10 µM |
| Cc1noc(C)c1-c1ccc2c(-c3ccc(C(=O)O)cc3)cn(CC3CCC(F)(F)CC3)c2c1 [P-0745, 4-[1-[(4,4-difluorocyclohexyl)methyl]-6-(3,5-dimethylisoxazol-4-yl)indol-3-yl]benzoic acid] | < 10 µM |
| Cc1noc(C)c1-c1cnc2c(I)cn(C(c3ccccc3)c3ccccc3)c2c1 [P-0616, 4-(1-benzhydryl-3-iodo-pyrrolo[3,2-b]pyridin-6-yl)-3,5-dimethyl-isoxazole] | < 10 µM |
| COC(=O)c1ccc(-c2cn([C@@H](c3ccccc3)c3ccccn3)c3cc(-c4c(C)noc4C)cnc23)cc1 [P-0715, methyl 4-[6-(3,5-dimethylisoxazol-4-yl)-1-[(S)-phenyl(2-pyridyl)methyl]pyrrolo[3,2-b]pyridin-3-yl]benzoate] | < 10 µM |
| Cc1noc(C)c1-c1cnc2c(c1)c(C(c1ccccn1)c1ccccn1)cn2C(F)F [P-0734, 4-[3-[bis(2-pyridyl)methyl]-1-(difluoromethyl)pyrrolo[2,3-b]pyridin-5-yl]-3,5-dimethyl-isoxazole] | < 10 µM |
| Cc1cc(-c2cnc3c(-c4ccc(C(=O)O)cc4)cn(CC4CCCCC4)c3c2)cn(C)c1=O [P-0759, 4-[1-(cyclohexylmethyl)-6-(1,5-dimethyl-6-oxo-3-pyridyl)pyrrolo[3,2-b]pyridin-3-yl]benzoic acid] | < 10 µM |
| CCOC(=O)c1ccc(-c2cn([C@@H](c3ccccc3)c3ccccn3)c3cc(-c4c(C)noc4C)ccc23)cc1 [P-0752, ethyl 4-[6-(3,5-dimethylisoxazol-4-yl)-1-[(S)-phenyl(2-pyridyl)methyl]indol-3-yl]benzoate] | < 10 µM |
| Cc1noc(C)c1-c1cnc2c(-c3ccc(C(=O)O)cc3)cn([C@H](c3ccccn3)C3CCCC3)c2c1 [P-0819, 4-[1-[(S)-cyclopentyl(2-pyridyl)methyl]-6-(3,5-dimethylisoxazol-4-yl)pyrrolo[3,2-b]pyridin-3-yl]benzoic acid] | < 10 µM |
| COC(=O)c1ccc(-c2cn(C(c3ccccc3)c3ccccn3)c3cc(-c4c(C)noc4C)cnc23)cc1 (stereo not drawn) [P-0610, methyl 4-[6-(3,5-dimethylisoxazol-4-yl)-1-[phenyl(2-pyridyl)methyl]pyrrolo[3,2-b]pyridin-3-yl]benzoate] | < 10 µM |
| Cc1noc(C)c1-c1cnc2c(c1)c(C(c1ccccc1)c1ccccc1)cn2C(F)F [P-0739, 4-[3-benzhydryl-1-(difluoromethyl)pyrrolo[2,3-b]pyridin-5-yl]-3,5-dimethyl-isoxazole] | < 10 µM |
| Cc1ccc(-c2cn(CC3(C)CCCCC3)c3cc(-c4c(C)noc4C)cnc23)cc1 [P-0792, 3,5-dimethyl-4-[1-[(1-methylcyclohexyl)methyl]-3-(p-tolyl)pyrrolo[3,2-b]pyridin-6-yl]isoxazole] | < 10 µM |
| Cc1noc(C)c1-c1ccc2c(-c3ccc([N+](=O)[O-])nc3)cn(CC3CCC(F)(F)CC3)c2c1 [P-0750, 4-[1-[(4,4-difluorocyclohexyl)methyl]-3-(6-nitro-3-pyridyl)indol-6-yl]-3,5-dimethyl-isoxazol] | < 10 µM |
| Cc1noc(C)c1-c1ccc2c(-c3ccc(P(=O)(O)O)cc3)cn(CC3CCC(F)(F)CC3)c2c1 [P-0747, [4-[1-[(4,4-difluorocyclohexyl)methyl]-6-(3,5-dimethylisoxazol-4-yl)indol-3-yl]phenyl]phosphonic acid] | < 10 µM |
| Cc1cc(-c2ccc3c(-c4ccc(C(=O)O)cc4)cn([C@@H](C)c4ccccn4)c3c2)cn(C)c1=O [P-0762, 4-[6-(1,5-dimethyl-6-oxo-3-pyridyl)-1-[(1S)-1-(2-pyridyl)ethyl]indol-3-yl]benzoic acid] | < 10 µM |
| Cc1ccc(-c2cn([C@@H](c3ccccn3)C3CCCC3)c3cc(-c4c(C)noc4C)cnc23)cc1 [P-0821, 4-[1-[(R)-cyclopentyl(2-pyridyl)methyl]-3-(p-tolyl)pyrrolo[3,2-b]pyridin-6-yl]-3,5-dimethyl-isoxazole] | < 10 µM |
